Data taken from publication PMC6112376, “Comprehensive Analyses and Prioritization of Tox21 10K Chemicals Affecting Mitochondrial Function by in-Depth Mechanistic Studies” (Environmental Health Perspectives, 2018).
Where a name gives a salt, the structure may show the parent alone. Read-outs that look alike come from different tables or passages of the source.

Experiments:
HepG2 cells [1] = settings: for IC50: read-out: MMP assays IC50 (µM) HepG2
rat primary hepatocytes [2] = system: rat primary hepatocytes
HepG2 cells [3] = settings: cited from earlier work
rat primary hepatocytes [4] = experiment: MMP assay in rat primary hepatocytes; settings: for IC50: read-out: MMP assays IC50 (µM) Rat Hepatocytes
[5] = read-out: MMP assays IC50 (µM) qHTS-HepG2
[6] = read-out: MMP assays IC50 (µM), qHTS-HepG2

## Nc1ccc(-c2ccc(N)c(N)c2)cc1N [3,3',4,4'-Tetraaminobiphenyl tetrahydrochloride]
HepG2 cells [1]
  MMP assays efficacy (%) HepG2: -82%
  IC50: 2 µM
Rat primary hepatocytes [2]
  MMP assays efficacy (%) Rat Hepatocytes: -39±5%
HepG2 cells [3]
  MMP assays efficacy (%) qHTS-HepG2: -92±8%
HepG2 cells [3]; [5]
  IC50: 0.34 ± 0.26 µM
Rat primary hepatocytes [4]
  IC50: 9.46 ± 4.43 µM

## c1ccc(C2(N3CCCC3)CCCCC2)cc1 [Rolicyclidine]
HepG2 cells [1]
  MMP assays IC50 (µM) HepG2: inactive
  MMP assays efficacy (%) HepG2: inactive
Rat primary hepatocytes [2]
  MMP assays efficacy (%) Rat Hepatocytes: inactive
HepG2 cells [3]
  MMP assays efficacy (%) qHTS-HepG2: -97±15%
HepG2 cells [3]; [6]
  IC50: 22.3 ± 2.32 µM
Rat primary hepatocytes [4]
  MMP assays IC50 (µM) Rat Hepatocytes: inactive

## O=C(NCc1cccnc1)Nc1ccc([N+](=O)[O-])cc1 [Pyrinuron]
HepG2 cells [1]
  MMP assays efficacy (%) HepG2: -81%
  IC50: 28.2 µM
Rat primary hepatocytes [2]
  MMP assays efficacy (%) Rat Hepatocytes: -108±48%
HepG2 cells [3]
  MMP assays efficacy (%) qHTS-HepG2: -87±26%
HepG2 cells [3]; [6]
  IC50: 26.3 ± 1.71 µM
Rat primary hepatocytes [4]
  IC50: 25.8 ± 10.1 µM

## CC(=O)[C@]1(O)Cc2c(O)c3c(c(O)c2[C@@H](O[C@H]2C[C@H](N)[C@H](O)[C@H](C)O2)C1)C(=O)c1ccccc1C3=O [Idarubicin hydrochloride]
HepG2 cells [1]
  MMP assays IC50 (µM) HepG2: inactive
  MMP assays efficacy (%) HepG2: inactive
Rat primary hepatocytes [2]
  MMP assays efficacy (%) Rat Hepatocytes: -38±9%
HepG2 cells [3]
  MMP assays efficacy (%) qHTS-HepG2: -124±48%
HepG2 cells [3]; [6]
  IC50: 6.83 ± 1.46 µM
Rat primary hepatocytes [4]; Rattus norvegicus, Hepatocyte
  IC50: 27 ± 10.7 µM

## O=C1[C@H](CC[C@H](O)c2ccc(F)cc2)[C@@H](c2ccc(O)cc2)N1c1ccc(F)cc1
HepG2 cells [1]
  MMP assays efficacy (%) HepG2: -112%
Rat primary hepatocytes [2]
  MMP assays efficacy (%) Rat Hepatocytes: -52±2%
HepG2 cells [3]
  MMP assays efficacy (%) qHTS-HepG2: -81±11%
HepG2 cells [3]; [5]
  IC50: 25.6 ± 3.54 µM
Rat primary hepatocytes [4]
  IC50: 16.6 ± 20.1 µM

## O=C(c1ccc(OCCN2CCCCC2)cc1)c1c(-c2ccc(O)cc2)sc2cc(O)ccc12 [Raloxifene]
HepG2 cells [1]
  MMP assays efficacy (%) HepG2: -96%
  IC50: 17.8 µM
Rat primary hepatocytes [2]
  MMP assays efficacy (%) Rat Hepatocytes: -92±39%
HepG2 cells [3]
  MMP assays efficacy (%) qHTS-HepG2: -121±25%
HepG2 cells [3]; [6]
  IC50: 5.05 ± 3.99 µM
Rat primary hepatocytes [4]; Rattus norvegicus, Hepatocyte
  IC50: 22.4 ± 24.1 µM

## CC(C)(c1ccccc1)c1ccc(O)c(C(C)(C)c2ccccc2)c1 [2,4-Bis(1-methyl-1-phenylethyl)phenol]
HepG2 cells [1]
  MMP assays efficacy (%) HepG2: -90%
  IC50: 2.82 µM
Rat primary hepatocytes [2]
  MMP assays efficacy (%) Rat Hepatocytes: -78±5%
HepG2 cells [3]
  MMP assays efficacy (%) qHTS-HepG2: -108±7%
HepG2 cells [3]; [5]
  IC50: 3.49 ± 1.51 µM
Rat primary hepatocytes [4]
  IC50: 43.9 ± 17.4 µM

## C[C@@H]1C/C=C/C=C/C=C/C=C/[C@H](O[C@@H]2O[C@H](C)[C@@H](O)[C@H](N)[C@@H]2O)C[C@@H]2O[C@](O)(C[C@@H](O)C[C@H]3O[C@@H]3/C=C/C(=O)O1)C[C@H](O)[C@H]2C(=O)O [Natamycin]
HepG2 cells [1]
  MMP assays IC50 (µM) HepG2: inactive
  MMP assays efficacy (%) HepG2: inactive
Rat primary hepatocytes [2]
  MMP assays efficacy (%) Rat Hepatocytes: inactive
HepG2 cells [3]
  MMP assays IC50 (µM) qHTS-HepG2: inactive
  MMP assays efficacy (%) qHTS-HepG2: inactive
Rat primary hepatocytes [4]
  MMP assays IC50 (µM) Rat Hepatocytes: inactive

## CC(=O)[O][Sn]([c]1ccccc1)([c]1ccccc1)[c]1ccccc1 [Triphenyltin acetate]
HepG2 cells [1]
  MMP assays efficacy (%) HepG2: -94%
  IC50: 1.12 µM
Rat primary hepatocytes [2]
  MMP assays efficacy (%) Rat Hepatocytes: -74±32%
HepG2 cells [3]
  MMP assays efficacy (%) qHTS-HepG2: -99±5%
HepG2 cells [3]; [6]
  IC50: 0.12 ± 0.04 µM
Rat primary hepatocytes [4]
  IC50: 24.1 ± 10.1 µM

## O=C(NC(=O)c1c(F)cccc1F)Nc1ccc(OC(F)(F)C(F)OC(F)(F)F)c(Cl)c1 (stereo not shown) [Novaluron]
HepG2 cells [1]
  MMP assays IC50 (µM) HepG2: inactive
  MMP assays efficacy (%) HepG2: inactive
Rat primary hepatocytes [2]
  MMP assays efficacy (%) Rat Hepatocytes: inactive
HepG2 cells [3]
  MMP assays IC50 (µM) qHTS-HepG2: inactive
  MMP assays efficacy (%) qHTS-HepG2: inactive
Rat primary hepatocytes [4]
  MMP assays IC50 (µM) Rat Hepatocytes: inactive

## CCCCCCCCCCCCCC[P+](CCCCCC)(CCCCCC)CCCCCC.[Br-] [Trihexyltetradecylphosphonium bromide]
HepG2 cells [1]
  MMP assays efficacy (%) HepG2: -95%
  IC50: 0.45 µM
Rat primary hepatocytes [2]
  MMP assays efficacy (%) Rat Hepatocytes: -89±37%
HepG2 cells [3]
  MMP assays efficacy (%) qHTS-HepG2: -96±9%
HepG2 cells [3]; [6]
  IC50: 0.84 ± 0.24 µM
Rat primary hepatocytes [4]
  IC50: 18.8 ± 4.25 µM

## O=[N+]([O-])c1cccc2ccccc12 [Compound 1-Nitronaphthalene]
HepG2 cells [1]
  MMP assays IC50 (µM) HepG2: inactive
  MMP assays efficacy (%) HepG2: inactive
Rat primary hepatocytes [2]
  MMP assays efficacy (%) Rat Hepatocytes: -54±17%
HepG2 cells [3]
  MMP assays efficacy (%) qHTS-HepG2: -40±7%
HepG2 cells [3]; [5]
  IC50: 59.7 ± 7.06 µM
Rat primary hepatocytes [4]; Rattus norvegicus, Hepatocyte
  IC50: 45.9 ± 14.7 µM

## Cc1cc(Nc2ccccc2C(=O)O)ccc1Cl
HepG2 cells [1]
  MMP assays efficacy (%) HepG2: -100%
  IC50: 35.5 µM
Rat primary hepatocytes [2]
  MMP assays efficacy (%) Rat Hepatocytes: -92±11%
HepG2 cells [3]
  MMP assays efficacy (%) qHTS-HepG2: -99±8%
HepG2 cells [3]; [5]
  IC50: 12.8 ± 0.84 µM
Rat primary hepatocytes [4]
  IC50: 22.7 ± 16.2 µM

## COc1ccc(O)c(C(C)(C)C)c1 [Compound 2-tert-Butyl-4-methoxyphenol]
HepG2 cells [1]
  IC50: 35.5 µM
Rat primary hepatocytes [2]
  MMP assays efficacy (%) Rat Hepatocytes: -53±11%
HepG2 cells [3]
  MMP assays efficacy (%) qHTS-HepG2: -92±3%
HepG2 cells [3]; [5]
  IC50: 25.3 ± 1.71 µM
Rat primary hepatocytes [4]
  IC50: 36.5 ± 19.2 µM

## [F][Sn]([c]1ccccc1)([c]1ccccc1)[c]1ccccc1 [Triphenyltin fluoride]
HepG2 cells [1]
  MMP assays efficacy (%) HepG2: -104%
  IC50: 1.78 µM
Rat primary hepatocytes [2]
  MMP assays efficacy (%) Rat Hepatocytes: -81±23%
HepG2 cells [3]
  MMP assays efficacy (%) qHTS-HepG2: -106±5%
HepG2 cells [3]; [6]
  IC50: 0.47 ± 0.31 µM
Rat primary hepatocytes [4]
  IC50: 6.17 ± 2.51 µM
